Measured values taken from WO2005063245A1, “Composition for lowering blood pressure” (priority 2003, dated 2005).
Like-named read-outs stand apart in the source and are kept apart here.

How the values were obtained:
[1] = Blood pressure lowering effect of samples (31)-(38) in SHR rats, same manner as Test example 6 (Table 11); type: in vivo, rat; conditions: oral
[2] = Test example 6: test of blood pressure lowering effect using SHR rats, samples (16)-(30) (Table 9); type: in vivo, rat; conditions: oral, mean ± SE, dose mg/kg: 17: 500, 18: 1.5, 19: 3.0, 20, 21, 24, 26, 27, 28, 30: 50, 22, 23: 20, 25, 29: 100
[3] = Oral administration experiment with SHR rats (summary statement); type: in vivo, rat
[4] = rats, intraperitoneal; Non-Patent Documents 5 and 6; cited from earlier work
[5] = Non-Patent Document 4; cited from earlier work
[6] = n=5, 2 h after administration, mean ± SE, dose mg/kg: 32, 33, 35, 36, 37: 20, 34: 23.4, 38: 32.4
[7] = n=5, column after 4 h, time not printed in this copy (line cut), dose mg/kg: 32, 33, 35, 36, 37: 20, 34: 23.4, 38: 32.4
[8] = n=5, 0 h (before administration), mean ± SE, dose mg/kg: 32, 33, 35, 36, 37: 20, 34: 23.4, 38: 32.4
[9] = n=5, 4 h after administration, mean ± SE, dose mg/kg: 32, 33, 35, 36, 37: 20, 34: 23.4, 38: 32.4

N[C@@H](CCC(=O)[O-])C(=O)[O-].[Na+].[Na+] [Sample 25, Sodium glutamate]
systolic blood pressure [1, 6]: 165±2.
systolic blood pressure [1, 7]: 177

bovine serum albumin [Sample 17]
systolic blood pressure ([2]; n=5, 0 h (before administration)): 186 + 2.2 mmH
systolic blood pressure ([2]; n=5, 2 h after administration): 169 + 1.8 mmH
systolic blood pressure ([2]; n=5, 4 h after administration): 170 ± 0.5 mmH

N[C@@H](Cc1ccccc1)C(=O)O [Sample 37, phenylalanine]
blood pressure during systole and diastole ([3]; SHR rats, oral administration): significantly reduce blood pressure during systole and diastole
effect on heart rate ([3]; SHR rats, oral administration): without affecting the heart rate
systolic blood pressure [1, 8]: 191±1.5
systolic blood pressure [1, 9]: 165±1.7
systolic blood pressure [1, 7]: 175

CC[C@H](C)[C@H](N)C(=O)O [Sample 20, Isoleucine]
blood pressure during systole and diastole ([3]; SHR rats, oral administration): significantly reduce blood pressure during systole and diastole
effect on heart rate ([3]; SHR rats, oral administration): without affecting the heart rate
systolic blood pressure [1, 6]: 163±2.5
systolic blood pressure [1, 9]: 162+2.6
systolic blood pressure [1, 7]: 180

N[C@@H](Cc1ccc(O)cc1)C(=O)O [Sample 38, Tyrosine, reference compound]
blood pressure lowering effect [4]: blood pressure lowering effect
systolic blood pressure [1, 8]: 189±1.7
systolic blood pressure [1, 6]: 161 ±1.8
systolic blood pressure [1, 9]: 159±1.1
systolic blood pressure [1, 7]: 169

N[C@@H](Cc1c[nH]c2ccccc12)C(=O)O [L-tributophan]
blood pressure lowering effect [4]: blood pressure lowering effect

N=C(N)NCCC[C@H](N)C(=O)O [Sample 22, Arginine]
blood pressure lowering effect [5]: blood pressure lowering effect in systole and diastole
heart rate [5]: increase in heart rate

CC(C)C[C@H](N)C(=O)O [Sample 21, Leucine]
blood pressure during systole and diastole ([3]; SHR rats, oral administration): significantly reduce blood pressure during systole and diastole
effect on heart rate ([3]; rat, in vivo, po): without affecting the heart rate
systolic blood pressure [1, 8]: 189±1.7
systolic blood pressure [1, 6]: 162±1.0
systolic blood pressure [1, 9]: 162±2.7
systolic blood pressure [1, 7]: 174

N[C@@H](CO)C(=O)O [Sample 36, Serine]
blood pressure during systole and diastole ([3]; SHR rats, oral administration): significantly reduce blood pressure during systole and diastole
effect on heart rate ([3]; rat, in vivo, po): without affecting the heart rate
systolic blood pressure ([1]; n=5, 0 h (before administration), mean ± SE, dose mg/kg: 32, 33, 35, 36, 37: 20, 34: 23.4, 38: 32.4, in mmHg): 190+2.0
systolic blood pressure [1, 6]: 164±1.4
systolic blood pressure [1, 9]: 158±3.7
systolic blood pressure [1, 7]: 172

N[C@@H](CCC(=O)O)C(=O)O [glutamic acid]
blood pressure during systole and diastole ([3]; SHR rats, oral administration): significantly reduce blood pressure during systole and diastole
effect on heart rate ([3]; SHR rats, oral administration): without affecting the heart rate

N[C@@H](Cc1c[nH]cn1)C(=O)O [Sample 23, Histidine]
blood pressure during systole and diastole ([3]; SHR rats, oral administration): significantly reduce blood pressure during systole and diastole
effect on heart rate ([3]; SHR rats, oral administration): without affecting the heart rate
systolic blood pressure [1, 8]: 186+1.7
systolic blood pressure [1, 6]: 152+3.3
systolic blood pressure [1, 9]: 157±1.6
systolic blood pressure [1, 7]: 171
